# Laboratory results as given in paper PMC3265130 (ACS Chemical Biology, 2011).
# Residues, ends and D or L forms follow the SMILES beside them. *: point of attachment. 5FAM = O=C1OC2(c3ccc(O)cc3Oc3cc(O)ccc32)c2ccc(C(=O)*)cc21; Ahx = NCCCCCC(=O)O; X1 = CNCC*
# Tests used:
# [1] = biological target: T1, L3MBTL1 3xMBT (Homo sapiens, UniProt Q9Y468); type: binding; conditions: site H4K20me1
# T1 sequence (Q9Y468 197-526 isoform Q9Y468-1): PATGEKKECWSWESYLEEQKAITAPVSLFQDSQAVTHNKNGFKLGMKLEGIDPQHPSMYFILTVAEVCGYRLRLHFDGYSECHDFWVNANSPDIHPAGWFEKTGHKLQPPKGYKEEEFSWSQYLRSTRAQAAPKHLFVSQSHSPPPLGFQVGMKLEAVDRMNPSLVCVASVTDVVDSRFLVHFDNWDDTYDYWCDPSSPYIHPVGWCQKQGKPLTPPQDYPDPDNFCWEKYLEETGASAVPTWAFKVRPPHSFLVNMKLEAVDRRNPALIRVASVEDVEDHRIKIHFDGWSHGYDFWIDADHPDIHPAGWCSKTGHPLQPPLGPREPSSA
# [2] = biological target: 53BP1 Tudor domain (Homo sapiens, UniProt Q12888); assay: Fluorescence polarization binding of 53BP1 Tudor domain to histone H4 peptides; conditions: FP; result in words; methyl-lysine analogue peptide, site H4K20me2
# 53BP1 Tudor domain, sequence (Q12888 1484-1603): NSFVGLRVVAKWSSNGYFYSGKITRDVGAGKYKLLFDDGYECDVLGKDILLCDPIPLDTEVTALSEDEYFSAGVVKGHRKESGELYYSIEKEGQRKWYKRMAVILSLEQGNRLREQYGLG
Compound,"ΔG(KCme) ([1]; FP, 25 °C, binding free energy, methyl-lysine analogue peptide)",ΔΔG(exp) ([1]; ΔG(KCme) – ΔG(Kme) from FP Kd) [kJ/mol],binding to the methyl-lysine analogue containing target [2]
CC[C@H](C)[C@H](NC(=O)[C@H](CC(N)=O)NC(=O)[C@H](CC(=O)O)NC(=O)[C@H](CCCNC(=N)N)NC(=O)[C@H](CC(C)C)NC(=O)[C@@H](NC(=O)[C@H](CSCCNC)NC(=O)[C@H](CCCNC(=N)N)NC(=O)[C@H](Cc1c[nH]cn1)NC(=O)[C@H](CCCNC(=N)N)NC(=O)[C@H](CCCCN)NC(=O)[C@H](C)NC(=O)CNC(=O)CNC(=O)[C@H](CCCCN)NC(=O)CCCCCNC(=O)c1ccc2c(c1)C(=O)OC21c2ccc(O)cc2Oc2cc(O)ccc21)C(C)C)C(=O)N[C@@H](CCC(N)=O)C(N)=O [Fl-H4(12–27)KC20me1] ({5FAM-Ahx}-KGGAKRHRC(X1)VLRDNIQ-NH2),–24.6 ± 0.2 kJ/mol,5.1 ± 0.3,
fluoresceine-KGGAKRHRKC(me1)VLRDNIQ [Fl-H4(12–27)KC20me2],,,no binding
